Test results: US20060079566A1, “PDK-1/Akt signaling inhibitors” (priority 2003, published 2006)
Entries after “also recorded” stand apart in the source; their conditions may differ. Like-named read-outs stand apart in the source and are kept apart here.

Key:
Akt = assay: Immunoprecipitated Akt kinase assay from drug-treated PC-3 cells (intracellular Akt activation); format: cell-based, human; settings: PC-3 cells treated 2 h, read-out: IC50 for inhibiting intracellular Akt activation
Procedure: Immunoprecipitated Akt kinase assay Akt immunoprecipitation was carried out according to a modified, published procedure. PC-3 cells were treated with DMSO vehicle or the test agents at the indicated concentrations for 2 h and then lysed at 4° C for 1 h in buffer A containing 50 mM Tris-HCl, pH 7.5, 1% Triton X-100, 1 mM EDTA, 1 mM EGTA, 50 mM sodium fluoride, 10 mM sodium β-glycerophosphate. 0.1% 2-mercaptoethanol, 0.1 mM phenylmethylsulfonyl fluoride, and 1 μg/mL each of aprotinin, pepstatin, and leupeptin. Cell lysates were centrifuged at 10,000 g for 5 min, and the supernatant was treated with anti-Akt at 4° C. for 60 min., followed by protein G-agarose beads for additional 60 min. The immunoprecipitate was used to analyze Akt kinase activity by using the Akt/SGK-specific peptide substrate RPRAATF as described above. Values represented the means of two independent determinations.

PC-3 cells [1] = assay: Cell proliferation (Coulter counter) in PC-3 cells; format: cell-based, human; settings: 1 μM; 10% FBS-supplemented RPMI 1640 medium
Procedure: (§1) Cell Culture PC-3 (p53−/−) human androgen-nonresponsive prostate cancer cells were purchased from the American […] (Manassas, Va.). Cells were cultured in RPMI 1640 medium (Gibco, Grand Island, N.Y.) supplemented with 10% fetal bovine serum (FBS; Gibco) at 37° C. in a humidified incubator containing 5% CO2.
Cell proliferation PC-3 cells were seeded into six-well plates at 50,000 cells/well in 10% FBS-containing RPMI 1640 medium. Following a 24 h attachment period, cells were treated in triplicate with the indicated concentration of compounds 1-36 or DMSO vehicle in 10% FBS-containing RPMI-1640 medium. At different time intervals, cells were harvested by trypsinization, and numerated using a Coulter counter model Z1 D/T (Beckman Coulter, Fullerton, Calif.).

recombinant PDK-1 = molecular target: T1, recombinant PDK-1 (Homo sapiens, UniProt O15530); assay: PDK-1 kinase activity (Upstate kit, SGK-coupled, cell-free); format: biochemical; settings: ratio of IC50 values
T1 construct: purchased Upstate (Lake Placid, N.Y.)
T1 sequence (O15530 1-556): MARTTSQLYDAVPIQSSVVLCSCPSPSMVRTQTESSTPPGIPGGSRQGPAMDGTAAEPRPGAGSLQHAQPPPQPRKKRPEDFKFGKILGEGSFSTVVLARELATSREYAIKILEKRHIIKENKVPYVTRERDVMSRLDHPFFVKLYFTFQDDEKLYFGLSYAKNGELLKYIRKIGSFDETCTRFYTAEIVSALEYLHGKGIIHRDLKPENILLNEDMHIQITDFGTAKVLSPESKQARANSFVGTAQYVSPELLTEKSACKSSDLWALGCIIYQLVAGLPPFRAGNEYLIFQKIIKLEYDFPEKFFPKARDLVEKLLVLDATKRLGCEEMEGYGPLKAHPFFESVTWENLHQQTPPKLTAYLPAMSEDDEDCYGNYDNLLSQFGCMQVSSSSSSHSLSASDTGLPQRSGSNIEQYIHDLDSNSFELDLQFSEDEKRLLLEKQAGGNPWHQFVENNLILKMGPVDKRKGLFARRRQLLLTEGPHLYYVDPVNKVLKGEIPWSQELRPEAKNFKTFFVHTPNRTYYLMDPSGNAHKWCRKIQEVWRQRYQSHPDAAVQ
Procedure: PDK-1 kinase activity This in vitro assay was performed using a PDK-1 kinase assay kit (Upstate, Lake Placid, N.Y.) according to the vendor's instructions. This cell-free assay is based on the ability of recombinant PDK-1, in the presence of DMSO vehicle or the test agent, to activate its downstream kinase serum- and glucocorticoid-regulated kinase (SGK.) which, in turn, phosphorylates the Akt/SGK-specific peptide substrate RPRAATF with [γ-^32]-ATP. […] The reported values represent the means of two independent determinations.

phospho-473Ser Akt = assay: Western blot of Akt and phospho-Akt in PC-3 cells; format: cell-based, human; settings: 5 μM and above, 2 h
Procedure: Immunoblotting. The general procedure for the Western blot analysis of Akt and phospho-Akt is described as follows. Cells were washed in PBS, resuspended in SDS sample buffer sonicated by an ultrasonic sonicator for 5 sec, and boiled for 5 min. After brief centrifugation, equivalent protein concentrations from the soluble fractions were resolved in 10% SDS-polyacrylamide gels on a Minigel apparatus, and transferred to a nitrocellulose membrane using a semi-dry transfer cell. The transblotted membrane was washed three times with TBS containing 0.05% Tween 20 (TBST). After blocking with TBST containing 5% nonfat milk for 60 min., the membrane was incubated with the primary antibody at 1:1,000 dilution in TBST-5% low fat milk at 4° C. for 12 h, and was then washed three times with TBST. The membrane was probed with goat anti-rabbit IgG-HRP conjugates (1:1,000) for 1 h at room temperature, and was washed with TBST three times. The immunoblots were visualized by enhanced chemiluminescence.

PC-3 cells [2] = assay: Cell viability analysis (MTT) in PC-3 cells; format: cell-based, human
Procedure: as §1
Cell viability analysis The effect of 4-[5-(4-methylphenyl)-3-(trifluoromethyl)-1H-pyrazol-1-yl]benzenesulfonamide and its derivatives on PC-3 cell viability was assessed by using the MTT {[3-(4,5-dimethylthiazol-2-yl)-2,5-diphenyl-2H-tetrazolium bromide]} assay in six replicates. Cells were grown in 10% FBS-supplemented RPMI 1640 medium in 96-well, flat bottomed plates for 24 h, and were exposed to various concentrations of compounds 1-36 dissolved in DMSO (final concentration ≦0.1%) in 1% serum-containing RPMI 1640 medium for different time intervals. Controls received DMSO vehicle at a concentration equal to that in drug-treated cells. The medium was removed, replaced by 200 μl of 0.5 mg/ml of MTT in 10% FBS-containing RPMI-1640 medium, and cells were incubated in the CO2 incubator at 37° C. for 2 h. Supernatants were removed from the wells, and the reduced MTT dye was solubilized in 200 μL/well DMSO. Absorbance at 570 nm was determined on a plate reader.

immunoprecipitated Akt = assay: Direct inhibition of immunoprecipitated Akt kinase activity; format: biochemical, human

Question: Which results are given for “4-[5-(2-phenanthrenyl)-3-(trifluoromethyl)-1H-1-yl]benzenesulfonamide [Compound 59]”?
Answer: IC50 (Akt): 5 µM; anti-proliferative activity on PC-3 cell proliferation (PC-3 cells [1]): substantial anti-proliferative activity; improvement of IC50 values (PDK-1 and PC-3) over the comparative compound (recombinant PDK-1): five- to six-fold; Akt dephosphorylation (Western blot) (phospho-473Ser Akt): significant Akt dephosphorylation; IC50 (PC-3 cells [2]; 24 h, 1% FBS-containing RPMI 1640 medium, read-out: dose required to induce 50% PC-3 cell death): 5 µM; IC50 (PC-3 cells [2]; inducing apoptotic death in PC-3 cells / PC-3 cell viability, read-out: IC50 PC-3): 5 µM; direct inhibitory effect on immunoprecipitated Akt kinase activity (immunoprecipitated Akt): Neither compound 59 nor other the other compounds displayed a direct inhibitory effect; also recorded: no appreciable direct inhibition
